Reference: PubChem BioAssay AID2060490 (Molecular Pharmacology Branch, DTP, NCI, 2025)

Tested on: 885512-296-R-J2-PDC complex spheroid viability
Assay: Anticancer human tumor 885512-296-R-J2-PDC patient-derived breast carcinoma cell line growth inhibition [GQUAD]
Conditions: for IC50: curve of first compound; for viability, T/C: stronger effect = lower value; active = viability on the fitted dose curve at most 10% of control; inactive = the rest
Method in brief: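 Viability of tumor cells grown as complex spheroids with endothelial and stromal cells, exposed to drug combinations. Top concentration at or near clinical Cmax (else 10 microM), diluted in half-log increments.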

[1] = second compound 0.0316 µM, first compound 0.0316 µM
[2] = second compound 0.0316 µM, first compound 0.1 µM
[3] = second compound 0.0316 µM, first compound 0.316 µM
[4] = second compound 0.0316 µM, first compound 1 µM
[5] = second compound 0.0316 µM, first compound 3.16 µM
[6] = second compound 0.0316 µM, first compound 10 µM
[7] = second compound 0.1 µM, first compound 0.0316 µM
[8] = second compound 0.1 µM, first compound 0.1 µM
[9] = second compound 0.1 µM, first compound 0.316 µM
[10] = second compound 0.1 µM, first compound 1 µM
[11] = second compound 0.1 µM, first compound 3.16 µM
[12] = second compound 0.1 µM, first compound 10 µM
[13] = second compound 0.316 µM, first compound 0.0316 µM
[14] = second compound 0.316 µM, first compound 0.1 µM
[15] = second compound 0.316 µM, first compound 0.316 µM
[16] = second compound 0.316 µM, first compound 1 µM
[17] = second compound 0.316 µM, first compound 3.16 µM
[18] = second compound 0.316 µM, first compound 10 µM
[19] = second compound 1 µM, first compound 0.0316 µM
[20] = second compound 1 µM, first compound 0.1 µM
[21] = second compound 1 µM, first compound 0.316 µM
[22] = second compound 1 µM, first compound 1 µM
[23] = second compound 1 µM, first compound 3.16 µM
[24] = second compound 1 µM, first compound 10 µM
[25] = second compound 3.16 µM, first compound 0.0316 µM
[26] = second compound 3.16 µM, first compound 0.1 µM
[27] = second compound 3.16 µM, first compound 0.316 µM
[28] = second compound 3.16 µM, first compound 1 µM
[29] = second compound 3.16 µM, first compound 3.16 µM
[30] = second compound 3.16 µM, first compound 10 µM
[31] = second compound 10 µM, first compound 0.0316 µM
[32] = second compound 10 µM, first compound 0.1 µM
[33] = second compound 10 µM, first compound 0.316 µM
[34] = second compound 10 µM, first compound 1 µM
[35] = second compound 10 µM, first compound 3.16 µM
[36] = second compound 10 µM, first compound 10 µM
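Also: spheroids exposed to the compounds for one week.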
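For viability, T/C in this document: percent of tumor spheroid viability relative to DMSO vehicle control wells.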

CC(C)(O)C1CCC(Nc2ccc3ncc(-c4cccc(C(F)(F)F)c4)n3n2)CC1 (centres undefined) + Cc1[nH]c2ccc(F)cc2c1-c1nc2c3cccnc3c3ncccc3c2[nH]1
inactive: viability, T/C [1] 102% | viability, T/C [2] 92.3% | viability, T/C [3] 92.1% | viability, T/C [4] 95.3% | viability, T/C [5] 99% | viability, T/C [6] 81.1% | viability, T/C [7] 106% | viability, T/C [8] 101% | viability, T/C [9] 92.8% | viability, T/C [10] 76.1% | viability, T/C [11] 84.9% | viability, T/C [12] 86.9% | viability, T/C [13] 101% | viability, T/C [14] 89.6% | viability, T/C [15] 83.1% | viability, T/C [16] 92.5% | viability, T/C [17] 81.8% | viability, T/C [18] 63.6% | viability, T/C [19] 69% | viability, T/C [20] 70.7% | viability, T/C [21] 73.6% | viability, T/C [22] 69.9% | viability, T/C [23] 58.6% | viability, T/C [24] 45.3%
< 31.6 nM: IC50 (second compound 3.16 µM) | IC50 (second compound 10 µM)
6910 nM: IC50 (second compound 1 µM)
> 10000 nM: IC50 (second compound 0.0316 µM) | IC50 (second compound 0.1 µM) | IC50 (second compound 0.316 µM)
active: viability, T/C [25] 9.24% | viability, T/C [26] 12.2% | viability, T/C [27] 10.3% | viability, T/C [28] 10.4% | viability, T/C [29] 12.7% | viability, T/C [30] 2.78% | viability, T/C [31] 1.94% | viability, T/C [32] 1.3% | viability, T/C [33] 2.71% | viability, T/C [34] 3.75% | viability, T/C [35] 4.01% | viability, T/C [36] 1%

CCCS(=O)(=O)Nc1ccc(F)c(C(=O)c2c[nH]c3ncc(-c4ccc(Cl)cc4)cc23)c1F + Cc1[nH]c2ccc(F)cc2c1-c1nc2c3cccnc3c3ncccc3c2[nH]1
393 nM: IC50 (second compound 0.0316 µM)
183 nM: IC50 (second compound 0.316 µM)
active: viability, T/C [5] 3.89% | viability, T/C [6] 2.96% | viability, T/C [11] 2.95% | viability, T/C [12] 3.79% | viability, T/C [16] 2.94% | viability, T/C [17] 2.46% | viability, T/C [18] 4.34% | viability, T/C [21] 4.4% | viability, T/C [22] 2.04% | viability, T/C [23] 2.3% | viability, T/C [24] 2.75% | viability, T/C [25] 4.29% | viability, T/C [26] 3.06% | viability, T/C [27] 1.78% | viability, T/C [28] 2% | viability, T/C [29] 2.26% | viability, T/C [30] 2.26% | viability, T/C [31] 1.32% | viability, T/C [32] 1.38% | viability, T/C [33] 1.47% | viability, T/C [34] 1.65% | viability, T/C [35] 2.7% | viability, T/C [36] 3.37%
49.3 nM: IC50 (second compound 1 µM)
inactive: viability, T/C [1] 112% | viability, T/C [2] 98.4% | viability, T/C [3] 60.7% | viability, T/C [4] 8.66% | viability, T/C [7] 121% | viability, T/C [8] 101% | viability, T/C [9] 64% | viability, T/C [10] 8.42% | viability, T/C [13] 94.4% | viability, T/C [14] 74% | viability, T/C [15] 28.7% | viability, T/C [19] 68.3% | viability, T/C [20] 20.9%
406 nM: IC50 (second compound 0.1 µM)
< 31.6 nM: IC50 (second compound 3.16 µM) | IC50 (second compound 10 µM)
